Legend:
Type in all cases: in vivo
Setaria viridis (SETVI) = assay: greenhouse post-emergence herbicidal efficacy against SETVI
Outline: (§1)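 Visual ratings (0% no effect, 100% complete kill) at 14 and 21 days after a post-emergence spray of 300 L/ha onto pot-grown weeds under greenhouse conditions. Mixtures and single active ingredients both tested. Differences from Colby-expected values, E^C=A+B−A×B/100, classify interactions as synergistic, additive or antagonistic.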

[1] = system: Amaranthus retroflexus (AMARE); assay: greenhouse post-emergence herbicidal efficacy against AMARE
Procedure: (§2) All trials whose results are shown were conducted in a greenhouse by the methodology specified below. The effect of the inventive herbicidal compositions was examined on the following harmful plants 14 and 21 days after application:
(§3) Echinochloa crus-galli (ECHCG), Eleusine indica (ELEIN), Setaria viridis (SETVI), Amaranthus retroflexus (AMARE), Chenopodium album (CHEAL), Kochia scoparia (KCHSC), Solanum nigrum (SOLNI), Avena fatua (AVEFA), Bromus sterilis (BROST), Lolium multiflorum (LOLMU), Phalaris minor (PHAMI), Poa annua (POAAN), Galium aparine (GALAP), Matricaria inodora (MATIN) and Polygonum convolvulus (POLCO).
(§4) The harmful plant seeds were sown in pots (diameter 8 cm) with sandy loam soil and germinated under optimal conditions. The inventive herbicidal compositions or the active ingredients alone were applied post-emergence to the planted pots with a spray volume of 300 L/ha. The trial was conducted in a greenhouse under optimum growth conditions. The herbicidal effects were assessed visually by comparison of untreated and treated plants. The percentages mean: 0%=no effects, 100%=the plants die off completely). The percentages are used to calculate interactions between individual treatments and combination treatments according to S. R. Colby, Weeds 15, pages 20 to 22 (1967).
(§5) The abbreviations mean: • a.i.=active ingredient • E^C=expected value according to Colby (E^C=A+B−A×B/100) • Diff: =difference (%) of measured value from expected value (%) (measured value minus expected value)
(§6) Assessment: • measured value E is greater than E^C:->synergism (+ diff.) • measured value E equals E^C:->additive effect • measured value E is smaller than E^C:->antagonism(− diff.)

[2] = system: Chenopodium album (CHEAL); assay: greenhouse post-emergence herbicidal efficacy against CHEAL
Outline: as §1

Kochia scoparia (KCHSC) = assay: greenhouse post-emergence herbicidal efficacy against KCHSC
Procedure: as §2, §3, §4, §5, §6

Solanum nigrum (SOLNI) = assay: greenhouse post-emergence herbicidal efficacy against SOLNI
Procedure: as §2, §3, §4, §5, §6

Avena fatua (AVEFA) = assay: greenhouse post-emergence herbicidal efficacy against AVEFA
Outline: (§7)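 Read-out is visual percent herbicidal effect relative to untreated plants, taken 14 and 21 days after treatment. Pot-grown plants in sandy loam received mixtures or solo active ingredients post-emergence at a spray volume of 300 L/ha under optimum greenhouse conditions.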

Bromus sterilis (BROST) = assay: greenhouse post-emergence herbicidal efficacy against BROST
Outline: as §7

[3] = system: Lolium multiflorum (LOLMU); assay: greenhouse post-emergence herbicidal efficacy against LOLMU
Outline: as §7

[4] = system: Polygonum convolvulus (POLCO); assay: greenhouse post-emergence herbicidal efficacy against POLCO
Outline: as §7

DIGSA = assay: greenhouse post-emergence herbicidal efficacy against DIGSA
Procedure: as §2, §4, §5, §6

[5] = system: Echinochloa crus-galli (ECHCG); assay: greenhouse post-emergence herbicidal efficacy against ECHCG
Outline: as §1

Eleusine indica (ELEIN) = assay: greenhouse post-emergence herbicidal efficacy against ELEIN; conditions: for pest or weed control at 5 g/ha / pest or weed control at 20 g/ha: Eleusine indica, post-emergence; for pest or weed control at 5 g/ha: 5 g of a.i./ha; for pest or weed control at 20 g/ha: 20 g of a.i./ha
Outline: as §1

Phalaris minor (PHAMI) = assay: greenhouse post-emergence herbicidal efficacy against PHAMI
Outline: as §7

Poa annua (POAAN) = assay: greenhouse post-emergence herbicidal efficacy against POAAN
Outline: as §7

Galium aparine (GALAP) = assay: greenhouse post-emergence herbicidal efficacy against GALAP
Outline: as §7

[6] = system: Matricaria inodora (MATIN); assay: greenhouse post-emergence herbicidal efficacy against MATIN; conditions: 21 days after application
Outline: as §7

[7] = 21 days after application, 0.5 g of a.i./ha
[8] = 21 days after application, 2 g of a.i./ha
[9] = 14 days after application, 0.5 g of a.i./ha
[10] = 14 days after application, 2 g of a.i./ha
[11] = 14 days after application, g of a.i./ha: A1-7 2.5, saflufenacil 2
[12] = 21 days after application, g of a.i./ha: A1-7 10, saflufenacil 8
[13] = 14 days after application, g of a.i./ha: A1-7 2.5, saflufenacil 8
[14] = 14 days after application, 1 g of a.i./ha
[15] = 14 days after application, 4 g of a.i./ha
[16] = 21 days after application, 4 g of a.i./ha
[17] = 21 days after application, 1 g of a.i./ha
[18] = 14 days after application, g of a.i./ha: A1-60 2.5, isoproturon 400
[19] = 14 days after application, g of a.i./ha: A1-60 10, isoproturon 400
[20] = 14 days after application, g of a.i./ha: A1-60 10, isoproturon 1600
[21] = 21 days after application, g of a.i./ha: A1-60 2.5, isoproturon 400
[22] = 21 days after application, g of a.i./ha: A1-60 10, isoproturon 400
[23] = 21 days after application, g of a.i./ha: A1-60 10, isoproturon 1600
[24] = 14 days after application, g of a.i./ha: A1-60 2.5, isoproturon 1600
[25] = 21 days after application, 20 g of a.i./ha
[26] = 14 days after application, 5 g of a.i./ha
[27] = 14 days after application, 20 g of a.i./ha
[28] = 21 days after application, 5 g of a.i./ha
[29] = 336 h, 14 days after application
[30] = 504 h, 21 days after application

SMILES: CCS(=O)(=O)c1c(C(F)(F)F)ccc(C(=O)Nc2nnc(C)o2)c1Cl [A1-7]
- Efficacy (Setaria viridis (SETVI); [7]): 30%
- Efficacy (Setaria viridis (SETVI); [8]): 75%
- Efficacy [1, 9]: 30%
- Efficacy [2, 9]: 0%
- Efficacy [2, 10]: 50%
- Efficacy [2, 7]: 10%
- Efficacy [2, 8]: 20%
- Efficacy (Kochia scoparia (KCHSC); [9]): 0%
- Efficacy (Kochia scoparia (KCHSC); [7]): 10%
- Efficacy (Solanum nigrum (SOLNI); [9]): 10%
- Efficacy (Solanum nigrum (SOLNI); [10]): 20%
- Efficacy (Solanum nigrum (SOLNI); [7]): 0%
- Efficacy (Solanum nigrum (SOLNI); [8]): 10%
- Efficacy (Avena fatua (AVEFA); [11]): 15%
- Efficacy (Bromus sterilis (BROST); [12]): 5%
- Efficacy [3, 11]: 0%
- Efficacy [3, 13]: 0%
- Efficacy [4, 11]: 10%
- Efficacy [4, 13]: 10%
- Efficacy ([4]; 14 days after application, g of a.i./ha: A1-7 10, saflufenacil 2): 25%
- Efficacy ([4]; 14 days after application, g of a.i./ha: A1-7 10, saflufenacil 8): 25%
- Efficacy ([4]; 21 days after application, g of a.i./ha: A1-7 2.5, saflufenacil 2): 0%
- Efficacy ([4]; 21 days after application, g of a.i./ha: A1-7 2.5, saflufenacil 8): 0%
- Efficacy ([4]; 21 days after application, g of a.i./ha: A1-7 10, saflufenacil 2): 10%
- Efficacy [4, 12]: 10%
- Efficacy (DIGSA; [10]): 20%
- Efficacy (DIGSA; [8]): 10%

SMILES: Cc1nnc(NC(=O)c2ccc(C(F)(F)F)c([S+](C)[O-])c2C)o1 (centres unmarked) [A1-60]
- Efficacy [5, 14]: 65%
- Efficacy [5, 15]: 90%
- Efficacy [5, 16]: 75%
- Efficacy [5, 17]: 40%
- Efficacy (Eleusine indica (ELEIN); [14]): 70%
- Efficacy (Eleusine indica (ELEIN); [15]): 90%
- Efficacy (Eleusine indica (ELEIN); [16]): 75%
- Efficacy (Eleusine indica (ELEIN); [17]): 40%
- Efficacy (Setaria viridis (SETVI); [14]): 70%
- Efficacy (Setaria viridis (SETVI); [15]): 85%
- Efficacy (Setaria viridis (SETVI); [16]): 70%
- Efficacy (Setaria viridis (SETVI); [17]): 50%
- Efficacy [1, 15]: 70%
- Efficacy [1, 16]: 60%
- Efficacy [1, 17]: 20%
- Efficacy (Solanum nigrum (SOLNI); [14]): 65%
- Efficacy (Solanum nigrum (SOLNI); [15]): 65%
- Efficacy (Solanum nigrum (SOLNI); [16]): 30%
- Efficacy (Solanum nigrum (SOLNI); [17]): 20%
- Efficacy (Avena fatua (AVEFA); [18]): 0%
- Efficacy (Avena fatua (AVEFA); [19]): 0%
- Efficacy (Avena fatua (AVEFA); [20]): 0%
- Efficacy (Avena fatua (AVEFA); [21]): 0%
- Efficacy (Avena fatua (AVEFA); [22]): 5%
- Efficacy (Avena fatua (AVEFA); [23]): 5%
- Efficacy (Bromus sterilis (BROST); [18]): 0%
- Efficacy (Bromus sterilis (BROST); [24]): 0%
- Efficacy (Bromus sterilis (BROST); [19]): 15%
- Efficacy (Bromus sterilis (BROST); [20]): 15%
- Efficacy (Bromus sterilis (BROST); [22]): 5%
- Efficacy (Bromus sterilis (BROST); [23]): 5%
- Efficacy [3, 18]: 0%
- Efficacy [3, 24]: 0%
- Efficacy [3, 19]: 0%
- Efficacy [3, 20]: 0%
- Efficacy [3, 22]: 3%
- Efficacy [3, 23]: 3%
- Efficacy (Phalaris minor (PHAMI); [18]): 10%
- Efficacy (Phalaris minor (PHAMI); [19]): 25%
- Efficacy (Phalaris minor (PHAMI); [20]): 25%
- Efficacy (Phalaris minor (PHAMI); [21]): 0%
- Efficacy (Phalaris minor (PHAMI); [22]): 20%
- Efficacy (Poa annua (POAAN); [24]): 0%
- Efficacy (Poa annua (POAAN); [19]): 10%
- Efficacy (Poa annua (POAAN); [20]): 10%
- Efficacy (Poa annua (POAAN); [22]): 20%
- Efficacy (Galium aparine (GALAP); [18]): 25%
- Efficacy (Galium aparine (GALAP); [24]): 25%
- Efficacy (Galium aparine (GALAP); [19]): 30%
- Efficacy (Galium aparine (GALAP); [20]): 30%
- Efficacy (Galium aparine (GALAP); [21]): 0%
- Efficacy (Galium aparine (GALAP); 21 days after application, g of a.i./ha: A1-60 2.5, isoproturon 1600): 0%
- Efficacy (Galium aparine (GALAP); [22]): 0%
- Efficacy (Galium aparine (GALAP); [23]): 0%
- Efficacy ([6]; g of a.i./ha: A1-60 2.5, isoproturon 400): 0%
- Efficacy ([6]; g of a.i./ha: A1-60 10, isoproturon 400): 40%
- Efficacy (DIGSA; [15]): 93%
- Efficacy (DIGSA; [16]): 70%

SMILES: CCOC(=O)[C@@H](C)Oc1ccc(Oc2nc3ccc(Cl)cc3o2)cc1 [fenoxaprop-P-ethyl]
- Efficacy (Setaria viridis (SETVI); [25]): 80%
- Efficacy [1, 26]: 0%
- Efficacy [1, 27]: 0%
- Efficacy [2, 26]: 0%
- Efficacy [2, 27]: 0%
- Efficacy [2, 28]: 0%
- Efficacy [2, 25]: 0%
- Efficacy (Kochia scoparia (KCHSC); [26]): 0%
- Efficacy (Kochia scoparia (KCHSC); [27]): 0%
- Efficacy (Kochia scoparia (KCHSC); [25]): 0%
- Efficacy (Solanum nigrum (SOLNI); [26]): 0%
- Efficacy (Solanum nigrum (SOLNI); [27]): 0%
- Efficacy (Solanum nigrum (SOLNI); [28]): 0%
- Efficacy (Solanum nigrum (SOLNI); [25]): 0%
- Efficacy (DIGSA; [26]): 30%
- Efficacy (DIGSA; [28]): 10%

SMILES: CSc1nnc(C(C)(C)C)c(=O)n1N [metribuzin]
- Efficacy [5, 26]: 10%
- Efficacy [5, 27]: 30%
- Efficacy [5, 28]: 0%
- Efficacy [5, 25]: 0%
- pest or weed control at 5 g/ha (Eleusine indica (ELEIN); [29]): 10%
- pest or weed control at 20 g/ha (Eleusine indica (ELEIN); [29]): 20%
- pest or weed control at 5 g/ha (Eleusine indica (ELEIN); [30]): 0%
- pest or weed control at 20 g/ha (Eleusine indica (ELEIN); [30]): 0%
- Efficacy (Setaria viridis (SETVI); [26]): 10%
- Efficacy (Setaria viridis (SETVI); [27]): 30%
- Efficacy (Setaria viridis (SETVI); [28]): 0%
- Efficacy (Setaria viridis (SETVI); [25]): 0%
- Efficacy [1, 26]: 20%
- Efficacy [1, 27]: 30%
- Efficacy [1, 28]: 0%
- Efficacy [1, 25]: 10%
- Efficacy [2, 26]: 30%
- Efficacy [2, 27]: 30%
- Efficacy [2, 28]: 20%
- Efficacy [2, 25]: 20%
- Efficacy (Kochia scoparia (KCHSC); [26]): 20%
- Efficacy (Kochia scoparia (KCHSC); [27]): 20%
- Efficacy (Kochia scoparia (KCHSC); [28]): 0%
- Efficacy (Kochia scoparia (KCHSC); [25]): 10%
- Efficacy (Solanum nigrum (SOLNI); [26]): 0%
- Efficacy (Solanum nigrum (SOLNI); [27]): 0%
- Efficacy (Solanum nigrum (SOLNI); [28]): 0%
- Efficacy (Solanum nigrum (SOLNI); [25]): 0%
- Efficacy (DIGSA; [26]): 0%
- Efficacy (DIGSA; [27]): 20%

Source: patent US10111435B2, “Herbicidal compositions containing N-(1,3,4-oxadiazol-2-yl)-aryl carboxylic acid amides” (BAYER CROPSCIENCE AKTIENGESELLSCHAFT, priority 2013, dated 2018)
